{"source": "patent US10189822B2", "about": "“Heterocyclic modulators of lipid synthesis” (3-V Biosciences, Inc., priority 2015, dated 2019)", "key": {"[1]": {"system": "Db/+ mice fed a high fructose diet", "settings": "treated for 28 days; cited from earlier work"}, "db/db mice": {"system": "db/db mice", "settings": "mouse, in vivo; cited from earlier work"}, "[2]": {"system": "HCV GT1b replicon cell line", "type": "cell-based", "settings": "IFN-α"}, "HCV replicon GT1b cells": {"system": "HCV replicon GT1b cells", "assay": "Cytotoxicity in HCV replicon GT1b cells, Cell Titer Flo (Example 5)", "type": "cell-based", "settings": "72 hours, IFN-α"}, "[3]": {"system": "HCV GT1b replicon cell line", "assay": "Two-compound combination study in HCV GT1b replicon, MacSynergy II", "type": "cell-based", "experimental": "The DMSO stocks of the compounds used in the single compound testing were also used in this analysis. Combination dilution matrixes were generated by POD-810 in 96-well assay microplates. The POD-810 system was used to generate 7-point, 2-fold serial dilutions in a matrix format.\nThe plates were incubated for 1 hour, and cell viability was measured on an Envision reader for cytotoxicity calculation. The liquid was then removed from the plates, after which 50 μL PBS and 50 μL firefly luciferase substrate solution were added to each well, after a 2-minute incubation period, chemiluminescence (for HCV replication calculation) was measured. The data were analyzed using MacSynergy™ II."}, "[4]": {"system": "HCV GT1b replicon cell line", "settings": "expected value, Table 10; IFN-α; cited from earlier work"}}}
{"compound": "CC12C[C@@]34C=CC(=O)[C@@](C)(CCC(=O)Nc5c(O)ccc(C(=O)O)c5O)C3[C@H](CC1C4)O2", "note": "(stereo partly drawn) [platensimycin]", "values": [{"measurement": "Insulin sensitivity", "setting": "[1]", "value": "improved insulin sensitivity"}, {"measurement": "Liver triglyceride levels", "setting": "[1]", "value": "reduced liver triglyceride levels"}, {"measurement": "Ambient glucose levels", "setting": "db/db mice", "value": "reduced"}]}
{"compound": "IFN-α", "values": [{"measurement": "GT1b EC50 in dose ranging assay", "setting": "[2]; Table 13", "value": 1.34, "unit": "IU/mL"}, {"measurement": "GT1b EC50", "setting": "[2]; single compound, 72 hours", "value": 1.34, "unit": "IU/mL"}, {"measurement": "GT1b CC50", "setting": "HCV replicon GT1b cells", "value": ">1000", "unit": "IU/mL"}, {"measurement": "GT1b EC50 of single dose in drug combination", "setting": "[3]; individual compound in the combination matrix, IFN-α", "value": 3.43, "unit": "IU/mL"}, {"measurement": "GT1b Expected EC50", "setting": "[4]", "value": 1, "unit": "IU/mL"}]}
{"compound": "Cc1ccc(C(=O)N2CCC(F)(c3ccc(C#N)cc3)CC2)cc1NC(=O)NC1CCCOC1", "note": "(stereo not drawn) [(V-K)]", "values": [{"measurement": "Combination antiviral effect (in words)", "setting": "[3]; in combination with IFN-α, RBV, Compounds B, C, D, E", "value": "additive antiviral activity"}]}
